Experimental data from patent publication US6489365B1, “Amidine derivatives, the preparation and use thereof as medicaments with Itb4 antagonistic effect” (Boehringer Ingelheim KG, priority 1992, dated 2002).

Columns and labels:
[1] = test system: LTB4-induced neutrophilic influx in the mouse ear; experiment: Leukotrien-B4-induced accumulation of neutrophiles in the mouse ear; format: in vivo; settings: po, read-out: LTB4-induced neutroph. Accum. p.o. ED50
Description: c) Leukotrien-B4-indicated Accumulation of Neutrophiles in the Mouse Ear
Evaluation of the neutrophilic influx by photometric measurement (mOD/min) of the myeloperoxidase activity (Bradley et al.: J. Invest. Dermatol. 78, 206, 1982) in the skin of the ear. Increase 6 hours after topical treatment of the left ear with LTB4 (250 ng on each side) compared with the right ear (2×5 μl acetone as solvent).
Substance administered by oral route in 1% tylose 300, 30 minutes before the LTB4 stimularion.

[2] = test system: neutrophilic granulocytes; experiment: LTB4-induced aggregation of neutrophilic granulocytes in the guinea-pig (in vitro); format: cell-based; settings: Cavia porcellus, 2 min, inhibition 2 minutes after incubation with test substance in polydiol/DMSO, read-out: LTB4-induced neutroph. Aggr. EC50
Description: b) Aggregation of Neutrophilic Granulocytes in the Guinea-pig
Indicated by LTB4 in vitro (increase in light transmission in the aggregometer, recorded in mm; each experiment repeated twice): inhibition 2 minutes after incubation with test substance in polydiol/DMSO.

LTB4 receptors = target: T1, LTB4 receptors (Homo sapiens, UniProt Q15722); experiment: U937 receptor binding test/LTB4; settings: 3H-LTB4 (3 nM), vital U937 cells, incubation 2 hours at 0°C; read-out: Receptor binding U937-8 Ki
T1 construct: vital U937 cells (differentiated human monocytary cell line with naturally expressed LTB4 receptors); endogenous in cells; host or cells: U937 cells (differentiated, intact/vital)
T1 sequence (Q15722 whole entry): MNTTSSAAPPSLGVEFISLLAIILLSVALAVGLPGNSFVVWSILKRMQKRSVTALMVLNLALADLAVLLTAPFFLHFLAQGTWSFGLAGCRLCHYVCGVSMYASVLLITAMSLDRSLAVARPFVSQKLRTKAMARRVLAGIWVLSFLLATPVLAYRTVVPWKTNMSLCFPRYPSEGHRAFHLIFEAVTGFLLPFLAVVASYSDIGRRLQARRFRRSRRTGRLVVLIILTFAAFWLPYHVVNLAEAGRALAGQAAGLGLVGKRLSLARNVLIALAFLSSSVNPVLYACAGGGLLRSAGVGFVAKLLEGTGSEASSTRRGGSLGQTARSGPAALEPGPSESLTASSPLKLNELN
Description: a) U937—Receptor Binding Test/LTB4
The binding of ^3H-LTB4 (3 nM) to vital U937 cells (differentiated human monocytary cell line with naturally expressed LTB4 receptors) is inhibited, in dosage dependent manner, by an increasing concentration of the test substance (incubation 2 hours at 0°C.). After the unbound ^3H-LTB4 has been separated off by membrane filtration, the radioactivity of the bound LTB4 receptor/^3H-LTB4 complex is quantified by scintillation measurement. The affinity (inhibition constant Kj) was determined by repeated adaptation of a displacement curve to the measurements (program: “coupled mass equilibria” on Wang computer).

SMILES: CCCc1c(OC)cccc1OCCCCOc1ccc(C(=N)N)cc1
- ED50 [1]: 0.8 mg/kg
- EC50 [2]: 1900 nM
- Ki (LTB4 receptors): 12 nM
